Experiments:
human TBK1 = biological target: T1, human TBK1 (Homo sapiens, UniProt Q9UHD2); experiment: TBK1 high ATP kinase assay (TR-FRET); format: biochemical; conditions: 1 mM ATP, selectivity assay, 15 min preincubation
T1 construct: Recombinant full-length N-terminally His-tagged human TBK1; His (N); purchased Life Technologies PR5618B; host or cells: insect cells
T1 sequence (Q9UHD2 1-729): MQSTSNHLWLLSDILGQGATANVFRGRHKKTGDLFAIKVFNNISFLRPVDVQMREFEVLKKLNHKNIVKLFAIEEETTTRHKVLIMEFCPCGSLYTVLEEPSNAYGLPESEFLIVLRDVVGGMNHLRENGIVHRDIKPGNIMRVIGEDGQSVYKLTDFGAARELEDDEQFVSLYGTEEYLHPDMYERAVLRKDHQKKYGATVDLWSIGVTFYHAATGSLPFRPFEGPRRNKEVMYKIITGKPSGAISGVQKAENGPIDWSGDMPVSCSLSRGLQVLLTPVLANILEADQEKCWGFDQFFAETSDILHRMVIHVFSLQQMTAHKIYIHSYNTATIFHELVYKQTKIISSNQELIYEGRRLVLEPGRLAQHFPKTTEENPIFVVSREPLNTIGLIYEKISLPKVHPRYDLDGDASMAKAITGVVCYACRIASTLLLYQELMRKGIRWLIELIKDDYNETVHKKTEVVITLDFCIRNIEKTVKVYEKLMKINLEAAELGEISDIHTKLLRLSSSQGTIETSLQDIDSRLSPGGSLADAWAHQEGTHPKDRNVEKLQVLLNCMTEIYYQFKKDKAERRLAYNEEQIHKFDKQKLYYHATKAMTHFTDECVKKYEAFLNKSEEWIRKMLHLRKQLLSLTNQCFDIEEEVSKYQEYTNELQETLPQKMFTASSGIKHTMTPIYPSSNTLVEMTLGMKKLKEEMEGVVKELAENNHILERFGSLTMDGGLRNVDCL
Procedure: TBK1 High ATP Kinase Assay
TBK1-inhibitory activity of compounds of the present invention at a high ATP concentration after preincubation of enzyme and test compounds was quantified employing the TR-FRET-based TBK1 assay as described in the following paragraphs.
Recombinant full-length N-terminally His-tagged human TBK1, expressed in insect cells and purified by Ni-NTA affinity chromatography, was purchased from Life Technologies (Cat. No PR5618B) and used as enzyme. As substrate for the kinase reaction biotinylated peptide biotin-Ahx-[…] (C-terminus in amide form) was used which can be purchased e.g. form the company Biosyntan (Berlin-Buch, Germany).
The concentration of TBK1 was adjusted depending of the activity of the enzyme lot and was chosen appropriate to have the assay in the linear range, typical concentrations were in the range of 0.002-0.004 μg/mL. The reaction was stopped by the addition of 3 μL of a solution of TR-FRET detection reagents (0.33 μM streptavidine-XL665 [Cisbio Bioassays, Codolet, France], 2.5 nM anti-phosho-Serine antibody [Merck Millipore, “STK antibody”, cat. #35-002] and 1.25 nM LANCE EU-W1024 labeled anti-mouse IgG antibody [Perkin-Elmer, product no. AD0077]) in an aqueous EDTA-solution (167 mM EDTA, 0.13% (w/v) bovine serum albumin in 100 mM HEPES/NaOH pH 7.5).

human ROCK-II = biological target: T2, human ROCK-II (Homo sapiens, UniProt O75116); experiment: ROCK-II kinase assay (ADP-Glo); format: biochemical; conditions: 10 μM ATP, 15 min preincubation, 30 min at 22° C.
T2 construct: human ROCK-II (amino acids 11-552); His6 (N); purchased Eurofins 14-451-K; host or cells: baculovirus infected SF21 insect cells
Procedure: ROCK-II-inhibitory activity of compounds of the present invention was quantified employing the ROCK-II assay as described in the following paragraphs. In essence, the enzyme activity is measured by quantification of the adenosine-di-phosphate (ADP), which is generated as a co-product of the enzyme reaction, via the “ADP-Glo™ Kinase Assay” kit from the company Promega. This detection system works as follows: In a first step the adenosine-tri-phosphate (ATP) not consumed in the kinase reaction is quantitatively converted to cAMP employing an adenylate cyclase (“ADP-Glo-reagent”), then the adenylate cyclase is stopped and the ADP generated in the kinase reaction converted to ATP which generates in a luciferase-based reaction a glow-luminescence signal (“Kinase Detection Reagent”).
As substrate for the kinase reaction the biotinylated peptide biotin-Ahx-[…] (C-terminus in amide form) was used which can be purchased e.g. from the company Biosyntan (Berlin-Buch, Germany).
The concentration of ROCK-II was adjusted depending of the activity of the enzyme lot and was chosen appropriate to have the assay in the linear range, a typical concentration is about 5 nM. The reaction was stopped by the addition of 2.5 μl of “ADP-Glo-reagent” (1:1, 5 fold diluted) and the resulting mixture was incubated at 22° C. for 1 h to convert the ATP not consumed in the kinase reaction completely to cAMP. […] The amount of emitted light was taken as a measure for the amount of ADP generated and thereby for the activity of the ROCK-II.

MAP4K1 = MAP4K1 (Homo sapiens, UniProt Q92918); experiment: MAP4K1 binding competition assay (TR-FRET, Tracer 222)
MAP4K1, sequence (Q92918 whole entry): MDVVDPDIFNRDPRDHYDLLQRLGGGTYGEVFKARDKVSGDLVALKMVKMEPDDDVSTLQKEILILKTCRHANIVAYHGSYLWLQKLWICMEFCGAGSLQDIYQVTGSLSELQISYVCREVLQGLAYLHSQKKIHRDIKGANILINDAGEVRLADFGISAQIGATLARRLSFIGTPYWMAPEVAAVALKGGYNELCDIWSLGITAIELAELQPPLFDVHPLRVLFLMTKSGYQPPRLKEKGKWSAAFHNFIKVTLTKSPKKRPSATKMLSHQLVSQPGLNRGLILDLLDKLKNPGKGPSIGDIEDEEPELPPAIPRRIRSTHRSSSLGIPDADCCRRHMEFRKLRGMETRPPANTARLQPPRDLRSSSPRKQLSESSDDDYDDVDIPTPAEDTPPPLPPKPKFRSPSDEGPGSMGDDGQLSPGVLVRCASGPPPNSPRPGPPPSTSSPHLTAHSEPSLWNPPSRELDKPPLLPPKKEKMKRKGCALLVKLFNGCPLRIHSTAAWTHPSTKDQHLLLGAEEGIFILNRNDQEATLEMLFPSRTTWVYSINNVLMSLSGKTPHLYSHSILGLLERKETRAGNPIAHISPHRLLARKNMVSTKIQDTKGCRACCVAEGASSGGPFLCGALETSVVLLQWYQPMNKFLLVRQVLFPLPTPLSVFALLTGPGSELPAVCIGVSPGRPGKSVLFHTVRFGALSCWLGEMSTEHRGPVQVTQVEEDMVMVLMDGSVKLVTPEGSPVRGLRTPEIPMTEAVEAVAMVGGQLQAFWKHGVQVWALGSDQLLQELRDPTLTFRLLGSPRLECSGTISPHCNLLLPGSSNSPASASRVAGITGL

T2 sequence (O75116 11-552): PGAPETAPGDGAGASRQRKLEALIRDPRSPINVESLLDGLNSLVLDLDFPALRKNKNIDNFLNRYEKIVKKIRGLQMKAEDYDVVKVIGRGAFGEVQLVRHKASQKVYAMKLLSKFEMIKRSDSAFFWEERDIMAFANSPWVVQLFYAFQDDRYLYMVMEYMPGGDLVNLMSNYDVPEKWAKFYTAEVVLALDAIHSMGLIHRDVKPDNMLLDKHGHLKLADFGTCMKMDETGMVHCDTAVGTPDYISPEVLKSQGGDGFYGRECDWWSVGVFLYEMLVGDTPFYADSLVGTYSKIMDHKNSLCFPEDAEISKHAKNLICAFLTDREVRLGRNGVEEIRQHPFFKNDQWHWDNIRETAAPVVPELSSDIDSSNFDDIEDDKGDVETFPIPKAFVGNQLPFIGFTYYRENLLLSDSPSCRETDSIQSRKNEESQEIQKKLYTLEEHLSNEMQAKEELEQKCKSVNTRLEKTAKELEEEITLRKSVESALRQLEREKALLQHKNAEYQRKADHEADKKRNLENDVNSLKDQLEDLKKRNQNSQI

Structure (SMILES)	IC50 (human TBK1) [nM]	IC50 (human ROCK-II) [nM]	IC50 (MAP4K1) [nM]
Fc1cc(NC2=NCC3(CC3)CO2)cc(F)c1Oc1ccnc2[nH]cc(C3(C(F)(F)F)CCC3)c12 [Example 3, N-[3,5-difluoro-4-({3-[1-(trifluoromethyl)cyclobutyl]-1H-pyrrolo[2,3-b]pyridin-4-yl}oxy)phenyl]-5-oxa-7-azaspiro[2.5]oct-6-en-6-amine]	> 20000	1600	4
Fc1cc(NC2=NCC3(CCOCC3)CO2)cc(F)c1Oc1ccnc2[nH]cc(C3(C(F)(F)F)CCC3)c12 [Example 2, N-[3,5-difluoro-4-({3-[1-(trifluoromethyl)cyclobutyl]-1H-pyrrolo[2,3-b]pyridin-4-yl}oxy)phenyl]-2,9-dioxa-4-azaspiro[5.5]undec-3-en-3-amine]	> 20000	1900	4.2
Fc1cc(NC2=NCC3(CCOC3)CO2)cc(F)c1Oc1ccnc2[nH]cc(C3(C(F)(F)F)CC3)c12 (single isomer, unassigned; enantiomer 2) [Example 7, N-[3,5-difluoro-4-({3-[1-(trifluoromethyl)cyclopropyl]-1H-pyrrolo[2,3-b]pyridin-4-yl}oxy)phenyl]-2,7-dioxa-9-azaspiro[4.5]dec-8-en-8-amine (single enantiomer 2)]	> 20000		
Fc1cc(NC2=NCC3(CC3)CO2)cc(F)c1Oc1ccnc2[nH]cc(C3(C(F)(F)F)CC3)c12 [Example 10, N-[3,5-difluoro-4-({3-[1-(trifluoromethyl)cyclopropyl]-1H-pyrrolo[2,3-b]pyridin-4-yl}oxy)phenyl]-5-oxa-7-azaspiro[2.5]oct-6-en-6-amine]	> 20000		
Fc1cc(NC2=NCC3(CCOC3)CO2)cc(F)c1Oc1ccnc2[nH]cc(C3(C(F)(F)F)CC3)c12 (single isomer, unassigned; enantiomer 1) [Example 6, N-[3,5-difluoro-4-({3-[1-(trifluoromethyl)cyclopropyl]-1H-pyrrolo[2,3-b]pyridin-4-yl}oxy)phenyl]-2,7-dioxa-9-azaspiro[4.5]dec-8-en-8-amine (single enantiomer 1)]	> 20000		
CC1(C)CN=C(Nc2cc(F)c(Oc3ccnc4[nH]cc(C5(C(F)(F)F)CCC5)c34)c(F)c2)OC1 [Example 4, N-[3,5-difluoro-4-({3-[1-(trifluoromethyl)cyclobutyl]-1H-pyrrolo[2,3-b]pyridin-4-yl}oxy)phenyl]-5,5-dimethyl-5,6-dihydro-4H-1,3-oxazin-2-amine]	> 20000	4100	6.2
Fc1cc(NC2=NCC3(COC3)CO2)cc(F)c1Oc1ccnc2[nH]cc(C3(C(F)(F)F)CCC3)c12 [Example 14, N-[3,5-difluoro-4-({3-[1-(trifluoromethyl)cyclobutyl]-1H-pyrrolo[2,3-b]pyridin-4-yl}oxy)phenyl]-2,6-dioxa-8-azaspiro[3.5]non-7-en-7-amine]	> 20000	1300	6.9
Fc1cc(NC2=NCC3(CCOC3)CO2)cc(F)c1Oc1ccnc2[nH]cc(C3(C(F)(F)F)CC3)c12 (racemic) [Example 5, (+/−)-N-[3,5-difluoro-4-({3-[1-(trifluoromethyl)cyclopropyl]-1H-pyrrolo[2,3-b]pyridin-4-yl}oxy)phenyl]-2,7-dioxa-9-azaspiro[4.5]dec-8-en-8-amine]	> 20000		
Fc1cc(NC2=NCC3(COC3)CO2)cc(F)c1Oc1ccnc2[nH]cc(C3(C(F)(F)F)CC3)c12 [Example 8, N-[3,5-difluoro-4-({3-[1-(trifluoromethyl)cyclopropyl]-1H-pyrrolo[2,3-b]pyridin-4-yl}oxy)phenyl]-2,6-dioxa-8-azaspiro[3.5]non-7-en-7-amine]	> 20000	500	5

Further lines, results first:

IC50 (human TBK1) [nM]	IC50 (human ROCK-II) [nM]	IC50 (MAP4K1) [nM]	Structure (SMILES)
> 20000			CC1(C)CN=C(Nc2cc(F)c(Oc3ccnc4[nH]cc(C5(C(F)(F)F)CC5)c34)c(F)c2)OC1 [Example 9, N-[3,5-difluoro-4-({3-[1-(trifluoromethyl)cyclopropyl]-1H-pyrrolo[2,3-b]pyridin-4-yl}oxy)phenyl]-5,5-dimethyl-5,6-dihydro-4H-1,3-oxazin-2-amine]
> 20000	5600	8.5	Fc1cc(NC2=NCC3(CCC3)CO2)cc(F)c1Oc1ccnc2[nH]cc(C3(C(F)(F)F)CCC3)c12 [Example 1, N-[3,5-difluoro-4-({3-[1-(trifluoromethyl)cyclobutyl]-1H-pyrrolo[2,3-b]pyridin-4-yl}oxy)phenyl]-6-oxa-8-azaspiro[3.5]non-7-en-7-amine]
> 20000			Fc1cc(NC2=NCC3(CCC3)CO2)cc(F)c1Oc1ccnc2[nH]cc(C3(C(F)(F)F)CC3)c12 [Example 12, N-[3,5-difluoro-4-({3-[1-(trifluoromethyl)cyclopropyl]-1H-pyrrolo[2,3-b]pyridin-4-yl}oxy)phenyl]-6-oxa-8-azaspiro[3.5]non-7-en-7-amine]
> 20000	1200	6.2	Fc1cc(NC2=NCC3(CCOC3)CO2)cc(F)c1Oc1ccnc2[nH]cc(C3(C(F)(F)F)CCC3)c12 (racemic) [Example 13, (+/−)-N-[3,5-difluoro-4-({3-[1-(trifluoromethyl)cyclobutyl]-1H-pyrrolo[2,3-b]pyridin-4-yl}oxy)phenyl]-2,7-dioxa-9-azaspiro[4.5]dec-8-en-8-amine]
> 20000			Fc1cc(NC2=NCC3(CCOCC3)CO2)cc(F)c1Oc1ccnc2[nH]cc(C3(C(F)(F)F)CC3)c12 [Example 11, N-[3,5-difluoro-4-({3-[1-(trifluoromethyl)cyclopropyl]-1H-pyrrolo[2,3-b]pyridin-4-yl}oxy)phenyl]-2,9-dioxa-4-azaspiro[5.5]undec-3-en-3-amine]

From patent US20220047603A1, “SUBSTITUTED PYRROLOPYRIDINE-DERIVATIVES” (BAYER AKTIENGESELLSCHAFT, priority 2018, published 2022)
